Usually IC50 stands for the concentration needed to halve the response being measured. Read a high IC50 as weaker potency in that assay.

For test [1], the target named is JAK3 (Homo sapiens (Human), UniProt P52333). The test can be described thus: JAK LanthaScreen Kinase Assay (TR-FRET), JAK3 in vitro enzyme assay. The note with it: 20.0 μM ATP. Format: biochemical. How it is done:
The JAK LanthaScreen™ Kinase Assay (Invitrogen) is used to determine the ability of test compounds to inhibit JAK1, JAK2, and JAK3 kinase activity. These are TR-FRET assay formats that use long-lifetime terbium labeled antibody as the donor species and GFP-STAT1 as the acceptor species. Use the TR-FRET ratio to monitor JAK kinase activity where an increase in phosphorylation of the GFP-STAT1 results in an increase in the TR-FRET ratio. Perform the kinase reaction using a 12.5 μl reaction volume in shallow black 384-well Proxiplate®. Add reagents to obtain final reaction conditions of […], 1.76 mM Triton X-100, ATP (20.0 μM for JAK1 and JAK3 or 5 μM for JAK2) enzyme assays, 10.0 mM MgCl2, 1 mM EGTA and 0.01% Brij-35, […] GFP-STAT1, 14 nM JAK1 enzyme for JAK1, 1.0 nM for JAK2 or 2.5 nM for JAK3 enzyme assays, and 4% DMSO and serial dilutions of test compound (diluted 1:3 from 20,000 to 1 nM). Following ATP/GFP-STAT1 addition, centrifuge the assay plates for 1 minute at 1000 revolutions per minute (RPM). Allow the plates to incubate at RT for 60 minutes and then add 12.5 μl of a stopping buffer containing 20 mM EDTA, 2 nM Terbium-anti-phosphorylated Signal Transducers and Activators of Transcription [phosphorylation Tyrosine 701 amino acid] […] Use ACTIVITYBASE® 4.0 to fit the percent inhibition and ten-point compound concentration data to a four-parameter logistic equation.
Background: Time-resolved FRET reads energy transfer from a long-lived donor to a nearby acceptor.

The target in test [2] is JAK1 (Homo sapiens (Human), UniProt P23458). Briefly: AlphaScreen SureFire p-STAT3-(p-Tyr705)-IL6-TF-1-JAK1 cell-based assay. The note with it: TF-1 cells, IL6 30 ng/mL, pSTAT3. Here is the method:
AlphaScreen SureFire Protocol p-STAT3-(p-Tyr705)-IL6-TF-1-JAK1 Cell-Based Assay
The JAK1 cell based assay described below is used to determine the JAK1 cellular potency of test compounds.
Cell preparation: Starve TF-1 cells in DMEM medium with 0.5% […] and 1× Pen/Strep at 37° C. Plate 100K cells per well in BD 96 well black plates with clear bottoms. Maintain the plates at RT for 30-60 minutes before incubating overnight at 37° C., and 5% CO2. Count cells using Vi-Cell counter, using a cell suspension at […] and plated 100 μL/well in […] Biocoat plates (Catalog #354640).
Test compound preparation and treatment: Prepare compounds at 1:3 serial dilutions in DMSO and further dilute into the medium. Test compounds in a range of 10 point concentrations from 20,000 to 1 nM. Add diluted compound to corresponding cell plates. Incubate the plates at 37° C. for 20 min. Add IL6 solution at the final concentration 30 ng/mL to corresponding cell plates and continue to incubate at 37° C. for 30 min. Remove media and add 50 μL 1× lysis buffer to each well.
pSTAT3 detection: Perform the following steps sequentially: make acceptor mix (activation buffer/reaction buffer/acceptor beads); transfer 4 μL lysate from 96 well plates to 384 well-Proxiplates; add 5 μL acceptor mix to 384 proxiplate plate(s) and seal plates with aluminum seal; shake 1-2 minutes on plate shaker; incubate plate at RT for 2 hr with gentle shaking; make donor mix (donor beads in dilution buffer); add 2 μL donor mix to assay plates; seal plates with aluminum seal; shake 1-2 minutes on plate shaker; incubate at RT for 2 hr with gentle shaking; read plate with Envision; protocol AlphaScreen Surefire 384.
For orientation: Bead proximity is the source of the signal in Alpha formats.

JAK1, sequence (P23458 whole entry): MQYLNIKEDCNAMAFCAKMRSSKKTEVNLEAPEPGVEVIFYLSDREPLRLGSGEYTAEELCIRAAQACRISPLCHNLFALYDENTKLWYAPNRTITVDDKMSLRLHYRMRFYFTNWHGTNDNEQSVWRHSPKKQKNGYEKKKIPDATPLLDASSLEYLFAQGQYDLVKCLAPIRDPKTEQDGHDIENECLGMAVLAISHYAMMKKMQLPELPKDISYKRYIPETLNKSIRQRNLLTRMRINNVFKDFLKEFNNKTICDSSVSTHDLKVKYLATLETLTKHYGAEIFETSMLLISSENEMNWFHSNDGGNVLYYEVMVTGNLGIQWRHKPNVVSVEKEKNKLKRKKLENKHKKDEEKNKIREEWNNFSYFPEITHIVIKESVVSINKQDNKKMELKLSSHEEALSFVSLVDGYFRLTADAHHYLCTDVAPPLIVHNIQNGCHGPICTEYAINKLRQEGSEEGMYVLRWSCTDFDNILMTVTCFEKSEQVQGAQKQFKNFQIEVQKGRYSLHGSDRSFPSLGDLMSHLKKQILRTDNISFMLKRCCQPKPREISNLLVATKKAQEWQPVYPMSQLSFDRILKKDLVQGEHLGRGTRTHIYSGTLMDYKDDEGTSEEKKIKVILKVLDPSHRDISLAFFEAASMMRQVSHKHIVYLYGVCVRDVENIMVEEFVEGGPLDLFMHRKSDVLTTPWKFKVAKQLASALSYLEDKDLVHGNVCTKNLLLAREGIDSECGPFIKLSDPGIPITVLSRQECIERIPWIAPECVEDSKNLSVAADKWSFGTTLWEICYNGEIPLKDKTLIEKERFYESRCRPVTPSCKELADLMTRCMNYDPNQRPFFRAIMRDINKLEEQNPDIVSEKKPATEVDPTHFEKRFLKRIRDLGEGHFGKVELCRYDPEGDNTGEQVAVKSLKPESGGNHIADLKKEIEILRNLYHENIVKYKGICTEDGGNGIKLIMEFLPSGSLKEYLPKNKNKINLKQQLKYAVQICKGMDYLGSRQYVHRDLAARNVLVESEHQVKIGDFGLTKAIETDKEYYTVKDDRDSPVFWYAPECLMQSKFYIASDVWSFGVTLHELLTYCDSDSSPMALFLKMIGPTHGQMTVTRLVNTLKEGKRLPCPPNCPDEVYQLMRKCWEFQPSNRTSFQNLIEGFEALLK
JAK3, sequence (P52333 whole entry): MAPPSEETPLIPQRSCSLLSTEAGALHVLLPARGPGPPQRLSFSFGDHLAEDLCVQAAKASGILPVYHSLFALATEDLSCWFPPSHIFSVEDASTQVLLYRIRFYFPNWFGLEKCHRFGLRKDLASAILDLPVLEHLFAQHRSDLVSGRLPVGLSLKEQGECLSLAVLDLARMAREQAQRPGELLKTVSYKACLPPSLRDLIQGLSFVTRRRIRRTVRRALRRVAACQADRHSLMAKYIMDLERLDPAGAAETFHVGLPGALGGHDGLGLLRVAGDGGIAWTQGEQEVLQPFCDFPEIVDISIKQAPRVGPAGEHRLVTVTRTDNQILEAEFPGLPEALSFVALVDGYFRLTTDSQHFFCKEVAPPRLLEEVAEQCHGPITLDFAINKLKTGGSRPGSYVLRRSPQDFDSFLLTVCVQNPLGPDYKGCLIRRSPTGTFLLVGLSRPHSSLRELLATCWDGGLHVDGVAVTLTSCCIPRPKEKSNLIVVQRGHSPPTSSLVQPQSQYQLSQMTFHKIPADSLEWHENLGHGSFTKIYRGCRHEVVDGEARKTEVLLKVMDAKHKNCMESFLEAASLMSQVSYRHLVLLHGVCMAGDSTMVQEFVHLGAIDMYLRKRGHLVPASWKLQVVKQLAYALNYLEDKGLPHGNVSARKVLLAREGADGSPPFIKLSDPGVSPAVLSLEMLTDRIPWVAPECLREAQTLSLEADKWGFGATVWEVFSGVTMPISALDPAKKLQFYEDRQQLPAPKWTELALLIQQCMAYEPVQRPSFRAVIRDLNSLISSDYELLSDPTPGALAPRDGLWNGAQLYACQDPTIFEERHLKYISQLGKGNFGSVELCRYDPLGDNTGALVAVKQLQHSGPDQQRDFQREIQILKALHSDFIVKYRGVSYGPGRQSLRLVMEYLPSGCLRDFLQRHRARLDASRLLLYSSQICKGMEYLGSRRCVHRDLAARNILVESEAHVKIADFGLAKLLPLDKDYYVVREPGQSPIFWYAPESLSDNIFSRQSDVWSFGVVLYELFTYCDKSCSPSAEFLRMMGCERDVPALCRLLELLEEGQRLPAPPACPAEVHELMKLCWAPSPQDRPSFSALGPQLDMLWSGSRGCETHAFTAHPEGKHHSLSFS

Regarding `COc1cc(Nc2cc(O[C@H]3CC[C@@H](NC[C@@H](O)C(F)(F)F)CC3)cc3c2ncn3C)nn1C` [Example 6, (2R)-1,1,1-Trifluoro-3-{[cis-4-({4-[(5-methoxy-1-methyl-1H-pyrazol-3-yl)amino]-1-methyl-1H-benzimidazol-6-yl}oxy)cyclohexyl]amino}propan-2-ol], the IC50 in test [1] came to 2.54 ± 0.51 µM; in test [2], 0.000168 ± 9e-05 µM.

These data come from patent US10323019B2, “Pyrazolylaminobenzimidazole derivatives as JAK inhibitors” (Eli Lilly and Company, priority 2016, dated 2019).
